From ChEMBL document CHEMBL1130264 (J Med Chem, 1997)

What was measured:
[1] = molecular target: T1, Neuronal acetylcholine receptor; alpha4/beta2 (Homo sapiens, UniProt P17787+P43681); test: Compound was evaluated for functional potencies and efficacies at human Nicotinic acetylcholine receptor alpha4-beta2; format: protein-complex assay
Rattus norvegicus [2] = organism: Rattus norvegicus; test: compound was evaluated for functional potencies and efficacies at rat nAChR subtype DA release; format: organism-based
[3] = molecular target: T2, Neuronal acetylcholine receptor subunit alpha-7 (Homo sapiens, UniProt P36544); test: Compound was evaluated for functional potencies and efficacies at human Nicotinic acetylcholine receptor alpha7
[4] = molecular target: Neuronal acetylcholine receptor; alpha3/beta4 (Homo sapiens, UniProt P30926+P32297); test: Compound was evaluated for functional potencies and efficacies at human Nicotinic acetylcholine receptor subtype IMR-32 (ganglionic); format: protein-complex assay
Rattus norvegicus [5] = organism: Rattus norvegicus; test: Compound was evaluated for functional potencies and efficacies at rat nAChR subtype DA release; format: organism-based
[6] = molecular target: T3, Neuronal acetylcholine receptor; alpha4/beta2 (Rattus norvegicus, UniProt P09483+P12390); test: Compound was evaluated for functional potencies and efficacies at rat Nicotinic acetylcholine receptor alpha4-beta2; format: protein-complex assay
[7] = molecular target: T3, Neuronal acetylcholine receptor; alpha4/beta2; test: Functional potency for Nicotinic acetylcholine receptor alpha4-beta2 (rat brain)
Acetylcholine receptor [8] = molecular target: T4, Acetylcholine receptor (Torpedo californica, UniProt P02710+P02712+P02714+P02718); test: Functional potency for nAChR subtype Alpha1-beta1 delta gamma (torpedo); format: protein-complex assay
[9] = molecular target: T5, Neuronal acetylcholine receptor subunit alpha-7 (Rattus norvegicus, UniProt Q05941); test: Functional potency for Nicotinic acetylcholine receptor alpha-7 (rat brain)
Acetylcholine receptor [10] = molecular target: T4, Acetylcholine receptor; test: Binding potency for nAChR subtype Alpha-1-beta-1-delta gamma(torpedo); format: protein-complex assay
[11] = molecular target: T5, Neuronal acetylcholine receptor subunit alpha-7; test: Binding potency for Nicotinic acetylcholine receptor alpha-7 (rat brain)
[12] = molecular target: T3, Neuronal acetylcholine receptor; alpha4/beta2; test: Binding potency for Nicotinic acetylcholine receptor alpha4-beta2 (rat brain)
[13] = molecular target: Muscle-type nicotinic acetylcholine receptor; test: Compound was evaluated for functional potencies and efficacies at human muscle type Nicotinic acetylcholine receptor in TE671 cells; format: cell-based; conditions: te-671
[14] = molecular target: T2, Neuronal acetylcholine receptor subunit alpha-7; test: Ability to block activation of acetylcholine-stimulated currents in human alpha-7 homomers expressed in oocytes; format: functional, cell-based, Oocyte
TE-671 = test: Stimulation of ion flux in TE671 cells; format: functional, cell-based; conditions: Homo sapiens
[15] = molecular target: T1, Neuronal acetylcholine receptor; alpha4/beta2; test: Compound was evaluated for functional potencies and efficacies at human Nicotinic acetylcholine receptor alpha4-beta2; low efficacy; format: protein-complex assay
[16] = molecular target: T2, Neuronal acetylcholine receptor subunit alpha-7; test: Compound was evaluated for functional potencies and efficacies at human Nicotinic acetylcholine receptor alpha7; low efficacy
[17] = molecular target: T3, Neuronal acetylcholine receptor; alpha4/beta2; test: Compound was evaluated for functional potencies and efficacies at rat Recombinant Nicotinic acetylcholine receptor alpha4-beta2; low efficacy; format: protein-complex assay
Acetylcholine receptor [18] = molecular target: T4, Acetylcholine receptor
Acetylcholine receptor [19] = molecular target: T4, Acetylcholine receptor; remark: listed apart in the source
[20] = molecular target: T2, Neuronal acetylcholine receptor subunit alpha-7; test: (§1) Affinity for Nicotinic acetylcholine receptor alpha7
[21] = molecular target: Neuronal acetylcholine receptor; test: Compound was evaluated for functional potencies and efficacies at rat Nicotinic acetylcholine receptor subtype PC12 (ganglionic); format: cell-based; conditions: pc-12
[22] = molecular target: Neuronal acetylcholine receptor; test: Compound was evaluated for functional potency and efficacy at rat Nicotinic acetylcholine receptor in PC12 cells (ganglionic); format: cell-based; conditions: pc-12
[23] = molecular target: T5, Neuronal acetylcholine receptor subunit alpha-7; test: as §1
[24] = molecular target: T6, Neuronal acetylcholine receptor (Rattus norvegicus) (UniProt P04757+P09483+P12389+P12390+P12392+P43144+Q9JLB5+P12391+P43143+P20420+Q05941); test: Compound was evaluated for functional potency and efficacy at rat Nicotinic acetylcholine receptor subtype DA release at 1 uM
[25] = molecular target: T6, Neuronal acetylcholine receptor (Rattus norvegicus); test: compound was evaluated for functional potency and efficacy at rat Nicotinic acetylcholine receptor subtype DA release at 10 uM

T4 sequence (P02710 whole entry): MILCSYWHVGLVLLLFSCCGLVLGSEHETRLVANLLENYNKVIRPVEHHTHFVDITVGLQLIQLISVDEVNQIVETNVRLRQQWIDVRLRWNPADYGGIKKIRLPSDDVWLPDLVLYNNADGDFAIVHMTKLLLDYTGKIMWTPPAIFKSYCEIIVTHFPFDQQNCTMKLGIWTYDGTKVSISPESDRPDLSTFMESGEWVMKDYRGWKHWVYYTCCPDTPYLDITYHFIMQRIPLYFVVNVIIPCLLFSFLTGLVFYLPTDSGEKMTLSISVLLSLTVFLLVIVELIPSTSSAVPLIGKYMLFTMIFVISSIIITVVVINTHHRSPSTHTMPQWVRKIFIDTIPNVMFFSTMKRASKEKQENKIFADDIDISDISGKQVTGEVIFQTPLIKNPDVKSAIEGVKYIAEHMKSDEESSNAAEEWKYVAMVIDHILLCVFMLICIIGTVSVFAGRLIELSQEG
T4 sequence (P02712 whole entry): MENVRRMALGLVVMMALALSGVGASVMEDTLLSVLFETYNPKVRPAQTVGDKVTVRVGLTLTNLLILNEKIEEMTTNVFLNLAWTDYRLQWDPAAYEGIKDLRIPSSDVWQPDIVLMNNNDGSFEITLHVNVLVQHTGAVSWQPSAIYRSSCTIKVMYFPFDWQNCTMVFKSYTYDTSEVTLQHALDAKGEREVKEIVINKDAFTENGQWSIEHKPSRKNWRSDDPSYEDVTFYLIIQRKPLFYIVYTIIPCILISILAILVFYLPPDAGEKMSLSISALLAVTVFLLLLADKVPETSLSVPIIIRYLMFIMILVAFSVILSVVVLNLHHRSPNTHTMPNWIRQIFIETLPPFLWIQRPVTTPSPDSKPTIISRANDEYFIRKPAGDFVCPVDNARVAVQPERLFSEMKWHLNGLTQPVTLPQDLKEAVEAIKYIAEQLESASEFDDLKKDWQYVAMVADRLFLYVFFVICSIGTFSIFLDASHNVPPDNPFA
T4 sequence (P02718 whole entry): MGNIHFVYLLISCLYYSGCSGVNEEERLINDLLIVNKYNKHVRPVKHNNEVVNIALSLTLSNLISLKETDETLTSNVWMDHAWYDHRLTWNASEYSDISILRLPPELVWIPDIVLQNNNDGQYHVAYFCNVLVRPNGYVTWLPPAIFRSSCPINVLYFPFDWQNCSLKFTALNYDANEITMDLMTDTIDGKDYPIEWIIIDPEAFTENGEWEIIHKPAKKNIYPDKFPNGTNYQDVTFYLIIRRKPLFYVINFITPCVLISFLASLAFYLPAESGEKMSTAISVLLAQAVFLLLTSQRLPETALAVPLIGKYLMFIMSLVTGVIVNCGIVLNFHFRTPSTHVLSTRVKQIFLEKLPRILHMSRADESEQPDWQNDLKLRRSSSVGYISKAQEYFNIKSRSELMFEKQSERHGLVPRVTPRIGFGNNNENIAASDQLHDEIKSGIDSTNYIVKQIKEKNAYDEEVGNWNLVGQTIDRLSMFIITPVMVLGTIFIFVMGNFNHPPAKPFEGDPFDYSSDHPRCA
T4 sequence (P02714 whole entry): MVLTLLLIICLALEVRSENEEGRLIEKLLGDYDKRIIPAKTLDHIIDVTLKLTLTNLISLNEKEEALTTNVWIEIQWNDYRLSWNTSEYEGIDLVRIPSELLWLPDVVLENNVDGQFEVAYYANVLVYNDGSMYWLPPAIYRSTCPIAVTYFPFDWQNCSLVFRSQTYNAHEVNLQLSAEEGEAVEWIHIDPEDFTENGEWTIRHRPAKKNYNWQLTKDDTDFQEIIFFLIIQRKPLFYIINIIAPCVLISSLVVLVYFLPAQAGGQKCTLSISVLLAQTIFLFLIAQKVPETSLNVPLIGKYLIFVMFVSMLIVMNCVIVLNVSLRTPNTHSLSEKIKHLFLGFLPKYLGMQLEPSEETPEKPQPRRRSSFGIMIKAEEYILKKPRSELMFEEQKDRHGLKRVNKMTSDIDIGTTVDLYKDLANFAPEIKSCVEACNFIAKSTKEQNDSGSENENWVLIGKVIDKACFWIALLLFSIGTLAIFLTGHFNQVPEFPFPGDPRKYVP
Sequence of Neuronal acetylcholine receptor; alpha3/beta4 (P30926 whole entry): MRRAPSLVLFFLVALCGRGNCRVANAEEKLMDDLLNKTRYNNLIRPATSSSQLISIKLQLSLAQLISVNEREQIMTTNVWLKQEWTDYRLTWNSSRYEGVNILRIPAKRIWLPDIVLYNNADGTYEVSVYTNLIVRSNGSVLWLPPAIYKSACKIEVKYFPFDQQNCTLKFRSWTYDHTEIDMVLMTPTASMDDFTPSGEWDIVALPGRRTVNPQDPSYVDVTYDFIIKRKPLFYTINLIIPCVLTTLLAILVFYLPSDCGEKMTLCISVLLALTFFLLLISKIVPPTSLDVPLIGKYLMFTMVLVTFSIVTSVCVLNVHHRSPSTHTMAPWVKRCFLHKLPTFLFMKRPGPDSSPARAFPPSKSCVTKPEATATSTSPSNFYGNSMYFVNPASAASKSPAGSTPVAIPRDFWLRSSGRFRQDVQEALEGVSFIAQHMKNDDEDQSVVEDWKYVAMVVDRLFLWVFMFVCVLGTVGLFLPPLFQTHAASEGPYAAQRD
Sequence of Neuronal acetylcholine receptor; alpha3/beta4 (P32297 whole entry): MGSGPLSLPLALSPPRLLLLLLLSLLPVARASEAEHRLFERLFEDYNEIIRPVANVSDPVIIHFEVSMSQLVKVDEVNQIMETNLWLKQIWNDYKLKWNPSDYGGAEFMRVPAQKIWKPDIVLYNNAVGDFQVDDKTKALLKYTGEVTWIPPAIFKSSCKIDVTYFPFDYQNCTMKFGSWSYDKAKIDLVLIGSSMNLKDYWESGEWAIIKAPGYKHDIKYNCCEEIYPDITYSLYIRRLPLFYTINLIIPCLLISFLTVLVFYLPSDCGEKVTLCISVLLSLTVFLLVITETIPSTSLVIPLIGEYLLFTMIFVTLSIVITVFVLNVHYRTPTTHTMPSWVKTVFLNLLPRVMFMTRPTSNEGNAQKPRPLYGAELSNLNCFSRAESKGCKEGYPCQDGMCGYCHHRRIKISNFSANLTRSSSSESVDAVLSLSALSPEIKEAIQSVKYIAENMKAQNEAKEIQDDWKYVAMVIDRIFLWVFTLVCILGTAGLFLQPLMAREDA
T2 sequence (P36544 whole entry): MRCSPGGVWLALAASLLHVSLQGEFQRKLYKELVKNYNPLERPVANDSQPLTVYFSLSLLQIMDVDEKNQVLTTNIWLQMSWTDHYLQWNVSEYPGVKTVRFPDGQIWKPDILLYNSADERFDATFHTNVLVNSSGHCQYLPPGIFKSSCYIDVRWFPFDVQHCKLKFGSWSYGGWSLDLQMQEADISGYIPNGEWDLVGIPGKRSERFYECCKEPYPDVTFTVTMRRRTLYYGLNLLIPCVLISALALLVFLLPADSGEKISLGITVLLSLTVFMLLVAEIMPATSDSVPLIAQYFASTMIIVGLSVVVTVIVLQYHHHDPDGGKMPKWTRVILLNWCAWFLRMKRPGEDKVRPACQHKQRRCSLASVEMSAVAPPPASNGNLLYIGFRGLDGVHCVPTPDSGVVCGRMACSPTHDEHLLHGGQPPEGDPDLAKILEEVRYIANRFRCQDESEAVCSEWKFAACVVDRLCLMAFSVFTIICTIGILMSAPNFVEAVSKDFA
T1 sequence (P17787 whole entry): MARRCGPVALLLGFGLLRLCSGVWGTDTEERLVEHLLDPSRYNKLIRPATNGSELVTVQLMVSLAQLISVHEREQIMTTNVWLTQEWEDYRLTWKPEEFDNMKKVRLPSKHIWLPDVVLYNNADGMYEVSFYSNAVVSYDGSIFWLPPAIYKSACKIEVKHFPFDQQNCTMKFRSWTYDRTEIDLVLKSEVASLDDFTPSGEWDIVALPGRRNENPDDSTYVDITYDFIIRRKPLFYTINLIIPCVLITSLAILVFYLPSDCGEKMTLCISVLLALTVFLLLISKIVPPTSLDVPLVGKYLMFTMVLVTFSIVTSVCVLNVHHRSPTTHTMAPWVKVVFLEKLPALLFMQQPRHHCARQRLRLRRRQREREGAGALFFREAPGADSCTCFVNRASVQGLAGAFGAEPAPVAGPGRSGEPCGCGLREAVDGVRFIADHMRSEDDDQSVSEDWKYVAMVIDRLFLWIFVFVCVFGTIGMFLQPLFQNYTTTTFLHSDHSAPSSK
T1 sequence (P43681 whole entry): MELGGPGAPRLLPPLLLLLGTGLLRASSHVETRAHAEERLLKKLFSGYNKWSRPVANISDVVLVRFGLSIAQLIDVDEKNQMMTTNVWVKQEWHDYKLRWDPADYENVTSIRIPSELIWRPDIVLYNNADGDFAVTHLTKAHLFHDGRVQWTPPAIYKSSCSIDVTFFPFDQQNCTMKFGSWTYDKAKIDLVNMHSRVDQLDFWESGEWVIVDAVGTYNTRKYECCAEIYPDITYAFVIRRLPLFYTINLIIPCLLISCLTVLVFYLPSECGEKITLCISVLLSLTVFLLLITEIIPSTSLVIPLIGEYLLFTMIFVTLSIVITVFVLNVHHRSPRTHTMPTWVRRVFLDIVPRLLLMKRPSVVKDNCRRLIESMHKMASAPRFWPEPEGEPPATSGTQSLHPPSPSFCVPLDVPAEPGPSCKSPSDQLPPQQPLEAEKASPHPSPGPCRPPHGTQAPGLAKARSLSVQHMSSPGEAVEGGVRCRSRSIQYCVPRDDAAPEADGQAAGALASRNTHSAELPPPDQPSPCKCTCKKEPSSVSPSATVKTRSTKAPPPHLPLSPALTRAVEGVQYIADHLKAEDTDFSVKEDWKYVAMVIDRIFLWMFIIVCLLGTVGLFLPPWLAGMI

## c1cncc(OC[C@@H]2CCN2)c1
[1]
  EC50: 0.7 µM
Rattus norvegicus [2]
  EC50: 0.003 µM
[3]
  EC50: 8.9 µM
[4]; read-out: EC50
  EC50: 0.7 µM

## C[N+]1(C)CCN(c2ccccc2)CC1 [DIMETHYLPHENYLPIPERAZINIUM]
[1]
  EC50: 2.5 µM
[3]
  EC50: 95 µM
Rattus norvegicus [5]
  EC50: 4.3 µM

## Cc1cc([C@@H]2CCCN2C)on1 [ABT-418]
[6]
  EC50: 6 µM
[7]
  EC50: 10 µM
[3]
  EC50: 264 µM
Acetylcholine receptor [8]
  EC50: 411 µM
[9]
  EC50: 264 µM
Acetylcholine receptor [10]
  Ki: > 10 µM
Rattus norvegicus [5]
  EC50: 0.38 µM
[11]
  Ki: > 10 µM
[4]; read-out: EC50
  EC50: 64 µM
[12]
  Ki: 7.89 nM

## CNC1(C)C2CCC(C2)C1(C)C (centres undefined) [MECAMYLAMINE]
[13]
  EC50: 30 µM
[14]
  IC50: 1.8 µM

## C[N+](C)(C)CCOC(=O)CCC(=O)OCC[N+](C)(C)C [SUXAMETHONIUM]
TE-671
  EC50: 30 µM

## CO[C@@H]1CC=C2CCN3CCC4=C(CC(=O)OC4)[C@@]23C1
[6]
  EC50: 0.37 µM
[7]
  EC50: 0.7 µM
[3]
  EC50: 19.6 µM
[9]
  EC50: 8.9 µM
Rattus norvegicus [5]
  EC50: 0.03 µM
[11]
  Ki: 0.148 µM
[12]
  Ki: 0.04 nM

## COc1ccc(/C=C2\CCCN=C2c2cccnc2)c(OC)c1 [GTS-21]
Rattus norvegicus [5]
  EC50: 10 µM
[15]
  EC50: Low efficacy
[16]
  EC50: Low efficacy
[4]
  EC50: Low efficacy
[17]
  EC50: Low efficacy

## CN1CCC[C@H]1c1cccnc1 [NICOTINE]
Acetylcholine receptor [18]
  EC50: 60 µM
Rattus norvegicus [5]
  EC50: 0.04 µM
Acetylcholine receptor [19]
  Ki: > 10 µM

## Cc1ncccc1OC[C@@H]1CCCN1 [POZANICLINE]
[20]
  Ki: > 10 µM
Rattus norvegicus [5]
  EC50: 1.1 µM
[15]
  EC50: Low efficacy
[16]
  EC50: Low efficacy
[4]
  EC50: Low efficacy

## O=c1cccc2n1C[C@@H]1CNC[C@H]2C1 [CYTISINICLINE]
[1]
  EC50: 38 µM
[3]
  EC50: 71 µM
Rattus norvegicus [5]
  EC50: 0.06 µM
[21]
  EC50: 10 µM
[4]; read-out: EC50
  EC50: 26 µM

## Clc1ccc(C2CC3CCC2N3)cn1 (racemic) [EPIBATIDINE]
[3]
  EC50: 3.5 µM
Rattus norvegicus [5]
  EC50: 0.037 µM

## CC(=O)C1=CC[N+](C)(C)CC1
[22]
  EC50: 100 µM

## CNCC/C=C/c1cccnc1 [RIVANICLINE]
[1]
  EC50: 4.3 µM
[23]
  Ki: 36 µM
Rattus norvegicus [5]
  EC50: 0.94 µM
[4]; read-out: EC50
  EC50: 46 µM

## CN1CCC[C@H]1COc1cccnc1
[24]
  Potency: 55%
[25]
  Potency: 90%
